In patent publication US20030077653A1, “Method for the identification of active site protease inactivators” (The University of Georgia Research Foundation, Inc., priority 2000, published 2003):
Starred links: 1 amine or outer side, 2 acyl side, 3 side chain; linkers in the order of their positions; H or OH if unused. Residues, ends and D or L forms follow the SMILES beside them. *: point of attachment. AFC = O=c1cc(C(F)(F)F)c2ccc(N*)cc2o1; Morpholide = C1CN(*)CCO1; Cbz = O=C(OCc1ccccc1)*; CO = O=C([*:1])[*:2]; CH2F = FC*

How the values were obtained:
[1] = target: purified Taenia solium cysteine protease; assay: Competitor assay: vehicle inhibition of cleavage of high Vmax AFC substrate cocktails (Step III); assay type: biochemical; details: preliminary results, in comparison to the battery of substrates
Experimental: (We employed “Vmax” here although Kcat could also be used). Due to the lower number of substrates, a percentage was not chosen for the “BOTTOM %” substrates. Alternately, all substrates which were not cleaved as determined by a value of 10 μM/hr or less, were chosen to be tested in this step for competitive ability. From this point forth, the term “vehicle” will represent low Vmax substrates that were capable of inhibiting cleavage of the percent cocktails. In this instance, we tested for “vehicles” which inhibited cleavage of the TOP 1.4% cocktail (they were delivered into the active site). Based upon our results from Step II, the top 1.4% cocktail was composed of Z-Phe-Arg-AFC, the highest cleaved substrate.
The experiment began with a competitor test between the noncleaved low Vmax substrates and the highest Vmax substrate, Z-Phe-Arg-AFC. Concentrations were varied between the low Vmax substrate and Z-Phe-Arg-AFC, as described above under “refinement of assay” until a relative inhibition profile was obtained.
The mixture was allowed to equilibrate for a period of 30 minutes. Finally, active purified enzyme was added to the tubes at a concentration which was always 50 times less than the concentration of the high and low Vmax substrates, in order to insure saturation conditions. This concentration varied from purification to purification and the amount added depended upon the yield and specific activity of the purified protease.
Positive controls were set up similarly as described for test controls, except that solvent was added in substitution for the low Vmax substrate (in a volume equal to the low Vmax volume addition). All of the substrates could be dissolved in dimethylsulfoxide (DMSO), and therefore, this was the solvent of choice. Negative controls were set up by adding the low Vmax and the high Vmax substrate in a tube without the protease. All potential non-proteolytic induced liberation of AFC was therefore controlled for in this tube (a feature which also insured stability of the AFC substrates, since these substrates will freely liberate AFC when unstable). A tube set will be established for this negative control.
All controls were set up in triplicate, and experiments repeated a minimum of five times. The assays were incubated at 37° C., for 18 hours overnight.
Percent inhibition was calculated as: [formula]
A 2.9% cocktail of the high Vmax substrates was made. This was composed of Z-FR-AFC and the second most cleaved substrate, Z-FAR-AFC. The vehicles promoted from the initial screenings above were again tested for competitive inhibition ability with the new cocktails. Their concentrations were set identically to those which were “fixed” in the previous protocols. […]

Taenia crassiceps cysts = assay: Short-term prophylactic protection of BALB/c mice from cysticercosis infection; assay type: in vivo; details: pre-injected two days, 10 T. crassiceps cysts/mouse, dosed daily four weeks, intraperitoneal; vs untreated controls
Experimental: FIG. 8. […] Each treated mouse was pre-injected intraperitoneally with inhibitor for two days. During treatment phase, each treated mouse received 1.48×10^−2 μg/μl of N2 daily for three weeks and every other day during the last week. Injections were carried out in 150 μl of dimethyl sulfoxide for each mouse. Both treated groups and positive controls were challenged intraperitoneally with 10 Taenia crassiceps cysts in 200 μl 0.15M PBS at the time of initial infection. After one month of infection, both groups were euthanized and cysts removed by washing with sterile 0.15M PBS. A minimum of two attached cysts were scored as multilobed (ML). […] (B) Graphically represents the effect of protease inhibitor treatment of BALB/c mice challenged with Taenia crassiceps cysts over a long-term period. Mice were divided into treated and untreated groups (5 mice/group).Each mouse in the treated group was pre-injected intraperitoneally with inhibitor for two days. […] Cysts were then counted by visual inspection. […]
Based upon the premise that the cyst wall cysteine protease may serve a critical finction to the life cycle of the Taenia cyst, we tested our most efficacious inhibitors, LLL-FMK and LLY-FMK (K-Pyr was used as a control), for their abilities to protect mice from cysticercosis infection. […] After one month, the mice were euthanized and the cysts counted. […]

T crassiceps cysts = assay: Therapeutic study in BALB/c mice infected with T crassiceps cysts; assay type: in vivo, Taenia crassiceps; details: inhibitor treatment began two weeks after infection
Description: Mice in all groups survived without noticeable side effects (e.g., coat condition, tail dragging or paresis, etc).

Row | Structure (SMILES) | Ki of vehicles (ranking; values not reported) [1] | % Prophylactic protection of BALB/c mice (Taenia crassiceps cysts) [%] | % Therapeutic protection of BALB/c mice (T crassiceps cysts) [%]
1 | CC(C)C[C@H](NC(=O)N1CCOCC1)C(=O)N[C@@H](Cc1ccc(O)cc1)C(=O)Nc1ccc2c(C(F)(F)F)cc(=O)oc2c1 [Mu-LY-AFC, Mu-Leu-Tyr-AFC] ({Morpholide-CO}-Leu-Tyr-{AFC}) | lowest Ki values |  | 
2 | CC(C)C[C@H](NC(=O)[C@H](CC(C)C)NC(=O)[C@H](CC(C)C)NC(=O)OCc1ccccc1)C(=O)CF [Z-LLL-FMK, Z-Leu-Leu-Leu-fluoromethylketone] (Cbz-Leu-Leu-Leu-CH2F) |  | 100 | 60
